Five compounds from US8519110B2, “mRNA cap analogs” (Board of Supervisors of Louisiana State University And …, priority 2008, dated 2013) can be followed below.

One data set has as its target T1, Human DcpS (Homo sapiens, UniProt Q96C86).
T1 construct: made in house; host or cells: Escherichia coli
T1 sequence (Q96C86 1-337): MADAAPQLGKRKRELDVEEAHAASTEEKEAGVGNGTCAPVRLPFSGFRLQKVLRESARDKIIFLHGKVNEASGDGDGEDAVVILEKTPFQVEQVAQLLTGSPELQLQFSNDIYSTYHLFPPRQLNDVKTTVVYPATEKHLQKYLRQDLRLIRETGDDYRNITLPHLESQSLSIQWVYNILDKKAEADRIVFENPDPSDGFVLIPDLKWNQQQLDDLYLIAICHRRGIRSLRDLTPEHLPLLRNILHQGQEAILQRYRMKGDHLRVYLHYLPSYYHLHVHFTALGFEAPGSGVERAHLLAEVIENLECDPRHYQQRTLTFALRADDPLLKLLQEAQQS
Kind of data set: Assay of susceptibility to DcpS (RP HPLC). As to conditions: 40 μM cap analog, 30° C., up to 120 min. It counts as biochemical. The protocol:
Human DcpS was expressed in Escherichia coli as described in L. Cohen et al., “Nematode m^7GpppG and m3^2,2,7GpppG decapping: activities in Ascaris embryos and characterization of C. elegans scavenger DcpS,” RNA, vol. 10, pp. 1609-1624 (2004). A 15 μM solution of the protein in 20 mM Tris buffer, pH 7.5, containing 50 mM KCl, 0.2 mM EDTA, 1 mM DTT, 0.5 mM PMSF, and 20% glycerol was stored at −80° C. until used. Enzymatic reactions were carried out at 30° C. in 500 μl of 50 mM Tris-HCl, pH 7.9, containing 20 mM MgCl2 and 60 mM (NH4)2SO4. A 40 μM solution of the selected cap analog was treated with 5.0 μl of DcpS for 120 min. At times of 10, 30, 60, and 120 min, a 100-μl sample was collected from the reaction mixture and deactivated by incubation at 90° C. for 2 min. Samples were analyzed without further treatment by analytical RP HPLC with a linear gradient of methanol in 0.1 M KH2PO4, pH 6.0, from 0-50% over 15 min.

The target of data set [1] is cap-dependent translation of luciferase mRNA in reticulocyte lysate. Kind of data set: Inhibition of cap-dependent translation in vitro by free cap analogs. The format is biochemical, rabbit. As for the experimental part: In vitro translation reactions were performed in 12.5 μl for 60 min at 30° C. under conditions favorable for cap-dependent translation. In some cases, the reaction mixture was incubated for 60 min at 30° C. prior to adding the dinucleotide cap analog (inhibitor) and m2^7,3′-OGppG-capped luciferase mRNA to start translation. In other cases, to analyze biological stability, the cap analog was incubated in the translation mixture for 60 min at 30° C. prior to adding the luciferase mRNA to start translation. A typical reaction mixture contained 56% reticulocyte lysate, the 20 “standard” amino acids (0.01 mM each), MgCl2 (1.2 mM), potassium acetate (170 mM), RiboLock Ribonuclease Inhibitor (0.32 U/μl), cap analog solution ( 1/10 of total reaction volume), and m2^7,3′-OGpppG-capped luciferase RNA. […] Reactions were performed with cap analog concentrations ranging from 0.12 to 100 μM. Luciferase activity was measured in a luminometer. […] The program OriginPro8 (OriginLab) was used for curve fitting with the equation qLUC=Z/(1+I/IC50)+N, where qLUC is the activity of luciferase synthesized in the presence of cap analog, Z is the activity of luciferase synthesized in the absence of cap analog, N is the activity of luciferase synthesized in a cap-independent manner, and I is the cap analog concentration.
Two type of experiments were carried out. In one set of experiments (condition A), a cap analog was added to the translation system together with luciferase mRNA. In the other set of experiments (condition B), the cap analog was incubated in the translation system for 60 min before addition of mRNA. […] There was a correlation between the resistance to hydrolysis by DcpS and the stability of analogs in the translation system.

Data set [2] relates to rabbit reticulocyte lysate system. Kind of data set: In vitro translation efficiency of capped luciferase mRNA with 31-base poly(A) tail, method II transcripts. It counts as biochemical. The protocol: Capped, polyadenylated luciferase mRNAs were synthesized in vitro by PCR from a dsDNA template that contained the SP6 promoter, the 5′-UTR sequence of rabbit β-globin mRNA, the entire firefly luciferase coding region, and 31 adenosine residues. A typical transcription reaction mixture (40 μl) contained SP6 transcription buffer (Fermentas), 0.7 ug of DNA template, 1 U/μl RiboLock Ribonuclease Inhibitor (Fermentas), 0.5 mM each of ATP, CTP, and UTP, 0.1 mM GTP, and 0.5 mM dinucleotide cap analog. The reaction mixture was incubated at 37° C. for 5 min before addition of SP6 RNA polymerase (Fermentas) to a final concentration of 1 U/μl, and incubation then continued for 45 min at 37° C. The reaction mixture was treated with DNase as in Method I. RNA transcripts were purified with NucAway Spin Columns (Ambion). The integrity of transcripts and quantitation was performed as in Method I.
A micrococcal nuclease-treated rabbit reticulocyte lysate system (Flexi Rabbit Reticulocyte Lysate System, Promega) was used for in vitro translation. Translation reactions were performed in 10 μl for 60 min at 30° C. A typical reaction mixture contained 40% reticulocyte lysate, the 20 “standard” amino acids (0.01 mM each), MgCl2 (1.2 mM), potassium acetate (170 mM), and mRNA (five different concentrations of each transcript, ranging from 0.25 to 4 μg/ml). Luciferase activity was measured in a luminometer (Glomax, Promega). Linear regression was used to fit the data points (luciferase activity versus concentration of mRNA transcript), and translational efficiency was defined as the slope of this line. The relative translational efficiencies of the test mRNAs were compared to that of m^7GpppG-capped luciferase mRNA, the latter being defined as 1.0.

The next data set concerns the target eIF4E (Mus musculus, UniProt P63073). Kind of data set: Binding affinity of cap analogs to eIF4E by fluorescence titration. As to conditions: equilibrium association constant; 20 °C, pH 7.2, ionic strength 150 mM. The protocol:
Fluorescence titration measurements were carried out on an LS-50B or LS-55 spectrofluorometer (Perkin Elmer Co.) at 20.0±0.2° C. in 50 mM HEPES/KOH (pH 7.2), 0.5 mM EDTA, and 1 mM DTT, with ionic strength adjusted to 150 mM by addition of KCl. Various cap analogue solutions, of increasing concentration, were added in 1 μl aliquots to 1.4 ml of 0.1 or 0.2 μM protein solutions. Fluorescence intensities were measured with excitation at 280 nm or 295 nm with 2.2 nm bandwidth, and detection at 337 nm with 4 nm bandwidth and a 290-nm cut-off filter. The data were corrected for sample dilution and inner filter effects. Equilibrium association constants (Kas) were determined by fitting the theoretical dependence of fluorescence intensity on cap analog concentration to the experimental data, as otherwise described in A. Niedźwiecka et al., “Biophysical studies of eIF4E cap-binding protein: recognition of mRNA 5′ cap structure and synthetic fragments of eIF4G and 4E-BP1 proteins,” J. Mol. Biol., vol. 312, pp. 615-635 (2002). The concentration of protein was allowed to be a free parameter in the equilibrium equation, to determine the amount of “active” protein. The final Kas was calculated as a weighted average of three to ten independent titrations, with the weights taken as the reciprocals of the squares of the numerical standard deviations. Numerical nonlinear least-square regression analysis was performed using ORGIN 6.0 (Microcal Software Inc., USA).
The binding affinities of eukaryotic eIF4E for various cap analogs were determined by fluorescence quenching. This biophysical test allows one to predict the potential efficacy of cap analogs in translation. Those having higher affinities for eIF4E than the unmodified cap analog (m^7GpppG) are expected to be better recognized by the translational machinery, leading to higher translational efficiencies. They also are expected to compete more effectively with unmodified mRNA when free cap dinucleotides are used to inhibit translation. See generally E. Grudzien-Nogalska et al., “Synthesis of anti-reverse cap analogs (ARCAs) and their applications in mRNA translation and stability,” Methods Enzymol., vol. 431, pp. 203-227 (2007).

Data set [3] in a line: Chemical stability in solution and on storage. The format is physicochemical. As for the experimental part: FIG. 5 depicts the synthesis of m2^7,2′-OGppSepG. The selenophosphate (PSeO3^−3) was prepared by a modification of the method described in R. Glass et al., “Selenophosphate,” Meth. Enzymol., vol. 252, pp. 309-315 (1995). Trimethylsilyl phosphite was treated with selenium in pyridine to give trimethylsilyl selenophosphate, which was then desilylated by methanol in the presence of triethylamine to give the selenophosphate triethylammonium salt. This compound was coupled with the imidazolide derivative of 7,2′-O-dimethylguanosine 5′-monophosphate (m2^7,2′-OGMP-Im) to give 7,2′-O-dimethylguanosine 5′-O-(2-selenodiphosphate) (m2^7,2′-OGDPβSe). […] The reaction was very rapid; essentially 100% conversion of m2^7,2′-OGMP-Im into m2^7,2′-OGDPβSe was observed by RP HPLC after 15 min. […] Thus, care was taken to maintain the pH at 7 or above during purification of m2^7,2′-OGDPβSe, which allowed the product to be isolated with 80% yield after ion-exchange chromatography. The m2^7,2′-OGDPβSe was then coupled with the imidazolide derivative of GMP in the presence of excess ZnCl2. Two peaks were observed by RP HPLC, corresponding to two m2^7,2′-OGppSepG diastereomers, which were designated D1 and D2 according to their elution order. However, the coupling proceeded slowly, and complete disappearance of m2^7,2′-OGDPβSe took about two days. The extended reaction time allowed partial hydrolysis of m2^7,2′-OGDPβSe to m2^7,2′-OGMP, and only a moderate reaction yield (40% conversion by HPLC, 25% isolated). The diastereomeric mixture of m2^7,2′-OGppSepG after isolation by ion-exchange chromatography was successfully resolved into pure diastereomers by RP HPLC. The products were characterized by mass spectrometry, ^1H NMR, and ^31P NMR to confirm structures and homogeneity.

The mark [4] stands for this setting: cap analog added together with luciferase mRNA, read-out: Inhibition of in vitro translation (IC50), condition A.
[5] abbreviates: cap analog incubated in translation system 60 min before addition of mRNA, read-out: Inhibition of in vitro translation (IC50), condition B.

The IC50 is the concentration that gives 50% inhibition.

Like-named read-outs stand apart in the source and are kept apart here.

Sequence of eIF4E (P63073 28-217 limits assumed): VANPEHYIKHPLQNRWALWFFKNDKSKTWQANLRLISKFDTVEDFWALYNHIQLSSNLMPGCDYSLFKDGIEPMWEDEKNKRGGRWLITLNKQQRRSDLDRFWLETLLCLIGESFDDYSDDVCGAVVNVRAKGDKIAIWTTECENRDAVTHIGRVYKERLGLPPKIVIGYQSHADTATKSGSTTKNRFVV

Take `[BH3-]P(=O)(OP(=O)(O)OCC1OC(n2cnc3c(=O)[nH]c(N)nc32)C(O)C1O)OP(=O)(O)OCC1OC(n2c[n+](C)c3c(=O)[nH]c(N)nc32)C(O)C1O` (single isomer, unassigned) [m^7GppBH3pG (D1), m^7GppBH3pG]: the “Susceptibility to DcpS” value on Human DcpS was “resistant”. For the same compound, the IC50 in data set [1] (setting [4]) amounted to 1.6 ± 0.3 µM; in data set [1] (setting [5]), 1.3 ± 0.1 µM. The “Translation efficiency in comparison to m^7GpppG-LUC-(A)31 mRNA, Experiment No. 4” value in data set [2] (experiment 4) is recorded as 1.65. For the same compound, the “Translation efficiency in comparison to m^7GpppG-LUC-(A)31 mRNA, Experiment No. 5” value in data set [2] (experiment 5) was 2.17. The “Translation efficiency in comparison to m^7GpppG-LUC-(A)31 mRNA, Mean” value in data set [2] (mean of experiments) is listed as 1.91. Moreover, the “Cap analog/eIF4E affinity (KAS)” value at eIF4E was determined as 44 ± 2 μM^−1.
In the case of `COC1C(O)C(COP(=O)([O-])OP(O)(O)=[Se])OC1n1c[n+](C)c2c(=O)[nH]c(N)nc21` (stereo not drawn) [m2^7,2′-OGDPβSe, 7,2′-O-dimethylguanosine 5′-O-(2-selenodiphosphate)], in data set [3] (acidic aqueous solutions, hydrolyzed to m2^7,2′-OGMP), the “Stability in acidic aqueous solutions” value was “unstable”. For the same compound, in data set [3] (neutral or basic solutions), the “Stability in neutral or basic solutions” value is recorded as “only moderately stable”.
Regarding `[BH3-]P(=O)(OP(=O)(O)OCC1OC(n2cnc3c(=O)[nH]c(N)nc32)C(O)C1O)OP(=O)(O)OCC1OC(n2c[n+](C)c3c(=O)[nH]c(N)nc32)C(O)C1O` (single isomer, unassigned) [m^7GppBH3pG (D2), m^7GppBH3pG], at Human DcpS, the “Susceptibility to DcpS” value is “resistant”. Moreover, the values for the IC50 in data set [1] (setting [4]) and in data set [1] (setting [5]) were 4.5 ± 0.5 µM and 3.5 ± 0.9 µM, respectively. Moreover, the “Cap analog/eIF4E affinity (KAS)” value at eIF4E was 13.0 ± 0.2 μM^−1.
Consider `[BH3-]P(=O)(OC[C@H]1O[C@@H](n2cnc3c(=O)[nH]c(N)nc32)[C@H](O)[C@@H]1O)OP(=O)(O)OP(=O)(O)OC[C@H]1O[C@@H](n2c[n+](C)c3c(=O)[nH]c(N)nc32)[C@H](O)[C@@H]1O` (single isomer, unassigned) [m^7GpppBH3G (D2), m^7GpppBH3G], for which the “Susceptibility to DcpS” value on Human DcpS was “hydrolyzed”. The IC50 in data set [1] (setting [4]) turned out to be 3.1 ± 0.2 µM; in data set [1] (setting [5]), 16.4 ± 0.8 µM. Also, the “Cap analog/eIF4E affinity (KAS)” value at eIF4E came out at 14.4 ± 0.6 μM^−1.
As for `[BH3-]P(=O)(OC[C@H]1O[C@@H](n2cnc3c(=O)[nH]c(N)nc32)[C@H](O)[C@@H]1O)OP(=O)(O)OP(=O)(O)OC[C@H]1O[C@@H](n2c[n+](C)c3c(=O)[nH]c(N)nc32)[C@H](O)[C@@H]1O` (single isomer, unassigned) [m^7GpppBH3G (D1), m^7GpppBH3G], the “Susceptibility to DcpS” value on Human DcpS is “hydrolyzed”. For the same compound, the figures for the IC50 in data set [1] (setting [4]) and in data set [1] (setting [5]) were 3.2 ± 0.3 µM and 9.2 ± 1.9 µM, respectively. For the same compound, the “Cap analog/eIF4E affinity (KAS)” value on eIF4E is 14.5 ± 0.2 μM^−1.
